Source: PMC5988656, “Phase I studies of AZD1208, a proviral integration Moloney virus kinase inhibitor in solid and haematological cancers” (British Journal of Cancer, 2018)

Assay: Solid tumour dose-escalation study: pharmacokinetics (plasma, urine)
Format: in vivo, human
Description: The schedules for collection of blood and urine samples for PK analyses in each cohort in both studies are described in Supplementary Table 1. When necessary for clinical response assessment in the AML study, a bone marrow sample for PK analysis was collected at Cycle 1, Day 28.
The concentration of AZD1208 in plasma and urine was determined by Covance, on behalf of Clinical Bioanalysis Alliance at AstraZeneca R&D, using a bioanalytical method. A volume of 0.05 ml of K2EDTA human plasma sample was extracted by liquid–liquid extraction using 0.7 ml of methyl tert-butyl ether. Approximately 100 µl of the supernatant was transferred, evaporated to dryness and reconstituted with 350 µl of 1:1 methanol:water, and a 5 µl injection was made to the high-performance liquid chromatography (HPLC) column. HPLC separations were performed on a Phenomenex LUNA C18 (50 × 2 mm, 5 µm) column using a mobile phase of 0.1% formic acid in water (A) and 0.1% formic acid in acetonitrile (B) at a flow rate of 0.6 ml/min and a column temperature of 40 °C. AZD1208-D5 was used as the internal standard. Detection was performed in a Sciex API4000 mass spectrometer, in a positive electrospray ionisation mode, using multiple reaction monitoring detection (AZD1208: 380.0–>248.1; AZD1208-D5: 385.0–>253.1).

In the case of N[C@@H]1CCCN(c2c(/C=C3\SC(=O)NC3=O)cccc2-c2ccccc2)C1 [AZD1208], the “Plasma concentration of AZD1208, Gmean” value (Cycle 0, Day 1, 1 h post-dose, 120 mg) is reported as “n=3 156.2 ng ml”, the “Plasma concentration of AZD1208, Gmean” value (Cycle 0, Day 1, 1 h post-dose, 240 mg) is reported as “n=7 668.4 ng ml” and the “Plasma concentration of AZD1208, Gmean” value (Cycle 0, Day 1, 1 h post-dose, 360 mg) is reported as “n=5 1424 ng ml”. For the same molecule, the “Plasma concentration of AZD1208, Gmean” value (Cycle 0, Day 1, 1 h post-dose, 540 mg) was “n=7 1053 ng ml”, the “Plasma concentration of AZD1208, Gmean” value (Cycle 0, Day 1, 1 h post-dose, 700 mg) was “n=6 691.7 ng ml” and the “Plasma concentration of AZD1208, Gmean” value (Cycle 0, Day 1, 1 h post-dose, 800 mg) was “n=6 925.6 ng ml”. The “Plasma concentration of AZD1208, Gmean” value (Cycle 0, Day 1, 1.5 h post-dose, 120 mg) was “n=3 696.5 ng ml”, the “Plasma concentration of AZD1208, Gmean” value (Cycle 0, Day 1, 1.5 h post-dose, 240 mg) was “n=7 1317 ng ml” and the “Plasma concentration of AZD1208, Gmean” value (Cycle 0, Day 1, 1.5 h post-dose, 360 mg) was “n=5 2509 ng ml”. The “Plasma concentration of AZD1208, Gmean” value (Cycle 0, Day 1, 1.5 h post-dose, 540 mg) was “n=7 2747 ng ml”, the “Plasma concentration of AZD1208, Gmean” value (Cycle 0, Day 1, 2 h post-dose, 120 mg) was “n=3 1064 ng ml” and the “Plasma concentration of AZD1208, Gmean” value (Cycle 0, Day 1, 2 h post-dose, 240 mg) was “n=7 1906 ng ml”. For the same molecule, the “Plasma concentration of AZD1208, Gmean” value (Cycle 0, Day 1, 2 h post-dose, 360 mg) was “n=6 3412 ng ml”, the “Plasma concentration of AZD1208, Gmean” value (Cycle 0, Day 1, 2 h post-dose, 540 mg) was “n=7 4049 ng ml” and the “Plasma concentration of AZD1208, Gmean” value (Cycle 0, Day 1, 2 h post-dose, 700 mg) was “n=6 3514 ng ml”. The “Plasma concentration of AZD1208, Gmean” value (Cycle 0, Day 1, 2 h post-dose, 800 mg) was “n=6 2929 ng ml”, the “Plasma concentration of AZD1208, Gmean” value (Cycle 0, Day 1, 4 h post-dose, 120 mg) was “n=3 720.6 ng ml” and the “Plasma concentration of AZD1208, Gmean” value (Cycle 0, Day 1, 4 h post-dose, 240 mg) was “n=6 1531 ng ml”. For the same molecule, the “Plasma concentration of AZD1208, Gmean” value (Cycle 0, Day 1, 4 h post-dose, 360 mg) was “n=6 3157 ng ml”, the “Plasma concentration of AZD1208, Gmean” value (Cycle 0, Day 1, 4 h post-dose, 540 mg) was “n=7 3160 ng ml” and the “Plasma concentration of AZD1208, Gmean” value (Cycle 0, Day 1, 4 h post-dose, 700 mg) was “n=6 4581 ng ml”. The “Plasma concentration of AZD1208, Gmean” value (Cycle 0, Day 1, 4 h post-dose, 800 mg) was “n=6 3844 ng ml”, the “Plasma concentration of AZD1208, Gmean” value (Cycle 0, Day 1, 6 h post-dose, 120 mg) was “n=3 681 ng ml” and the “Plasma concentration of AZD1208, Gmean” value (Cycle 0, Day 1, 6 h post-dose, 240 mg) was “n=7 1408 ng ml”. The “Plasma concentration of AZD1208, Gmean” value (Cycle 0, Day 1, 6 h post-dose, 360 mg) was “n=6 2501 ng ml”, the “Plasma concentration of AZD1208, Gmean” value (Cycle 0, Day 1, 6 h post-dose, 540 mg) was “n=7 3190 ng ml” and the “Plasma concentration of AZD1208, Gmean” value (Cycle 0, Day 1, 6 h post-dose, 700 mg) was “n=6 5091 ng ml”. The “Plasma concentration of AZD1208, Gmean” value (Cycle 0, Day 1, 6 h post-dose, 800 mg) was “n=6 2677 ng ml”, the “Plasma concentration of AZD1208, Gmean” value (Cycle 0, Day 1, 8 h post-dose, 120 mg) was “n=3 597.8 ng ml” and the “Plasma concentration of AZD1208, Gmean” value (Cycle 0, Day 1, 8 h post-dose, 240 mg) was “n=7 1456 ng ml”. The “Plasma concentration of AZD1208, Gmean” value (Cycle 0, Day 1, 8 h post-dose, 360 mg) was “n=6 2196 ng ml”, the “Plasma concentration of AZD1208, Gmean” value (Cycle 0, Day 1, 8 h post-dose, 540 mg) was “n=7 2957 ng ml” and the “Plasma concentration of AZD1208, Gmean” value (Cycle 0, Day 1, 8 h post-dose, 700 mg) was “n=6 4256 ng ml”. The “Plasma concentration of AZD1208, Gmean” value (Cycle 0, Day 1, 8 h post-dose, 800 mg) was “n=6 3463 ng ml”, the “Plasma concentration of AZD1208, Gmean” value (Cycle 0, Day 1, 24 h post-dose, 120 mg) was “n=3 459.4 ng ml” and the “Plasma concentration of AZD1208, Gmean” value (Cycle 0, Day 1, 24 h post-dose, 240 mg) was “n=7 1157 ng ml”. The “Plasma concentration of AZD1208, Gmean” value (Cycle 0, Day 1, 24 h post-dose, 360 mg) was “n=6 1649 ng ml”, the “Plasma concentration of AZD1208, Gmean” value (Cycle 0, Day 1, 24 h post-dose, 540 mg) was “n=7 2111 ng ml” and the “Plasma concentration of AZD1208, Gmean” value (Cycle 0, Day 1, 24 h post-dose, 700 mg) was “n=6 2957 ng ml”. The “Plasma concentration of AZD1208, Gmean” value (Cycle 0, Day 1, 24 h post-dose, 800 mg) was “n=6 2466 ng ml”, the “Plasma concentration of AZD1208, Gmean” value (Cycle 0, Day 1, 48 h post-dose, 120 mg) was “n=3 308.4 ng ml” and the “Plasma concentration of AZD1208, Gmean” value (Cycle 0, Day 1, 48 h post-dose, 240 mg) was “n=7 773.2 ng ml”. For the same molecule, the “Plasma concentration of AZD1208, Gmean” value (Cycle 0, Day 1, 48 h post-dose, 360 mg) was “n=6 1361 ng ml”, the “Plasma concentration of AZD1208, Gmean” value (Cycle 0, Day 1, 48 h post-dose, 540 mg) was “n=7 1168 ng ml” and the “Plasma concentration of AZD1208, Gmean” value (Cycle 0, Day 1, 48 h post-dose, 700 mg) was “n=6 1717 ng ml”. The “Plasma concentration of AZD1208, Gmean” value (Cycle 0, Day 1, 48 h post-dose, 800 mg) was “n=6 1377 ng ml”, the “Plasma concentration of AZD1208, Gmean” value (Cycle 0, Day 1, 72 h post-dose, 120 mg) was “n=3 221.4 ng ml” and the “Plasma concentration of AZD1208, Gmean” value (Cycle 0, Day 1, 72 h post-dose, 240 mg) was “n=7 501.1 ng ml”. The “Plasma concentration of AZD1208, Gmean” value (Cycle 0, Day 1, 72 h post-dose, 360 mg) was “n=6 912.2 ng ml”, the “Plasma concentration of AZD1208, Gmean” value (Cycle 0, Day 1, 72 h post-dose, 540 mg) was “n=7 710.8 ng ml” and the “Plasma concentration of AZD1208, Gmean” value (Cycle 0, Day 1, 72 h post-dose, 700 mg) was “n=6 1141 ng ml”. For the same molecule, the “Plasma concentration of AZD1208, Gmean” value (Cycle 0, Day 1, 72 h post-dose, 800 mg) was “n=6 798.7 ng ml”, the “Plasma concentration of AZD1208, Gmean” value (Cycle 1, Day 15, 0.25 h post-dose, 120 mg) was “n=3 963.7 ng ml” and the “Plasma concentration of AZD1208, Gmean” value (Cycle 1, Day 15, 0.25 h post-dose, 240 mg) was “n=6 606.8 ng ml”. For the same molecule, the “Plasma concentration of AZD1208, Gmean” value (Cycle 1, Day 15, 0.25 h post-dose, 360 mg) was “n=2 562.8 ng ml”.
